From patent US20020128311A1, “Halocyanoacetamide antimicrobial compositions” (priority 2000, published 2002)
Each block holds one compound with its values, some of them ahead of it.

Legend:
[1] = Stability of CMIT and DBNPA mixtures in GTA, stored at 50° C., HPLC; type: physicochemical; details: […]% DBNPA, […]% CMIT/MIT mixture
Description: Surfactants were TweenTM 20, TritonTM DF-12 or TritonTM CF-10. The compositions were stored at 50° C. for 4 weeks and the concentrations of active ingredients ([…]) in the compositions were determined by HPLC at the indicated time intervals.

[2] = Solubility in glyceryl triacetate; details: based on total amount of compound and solvent
[3] = Stability of DCOIT and DBNPA mixtures in GTA, stored at 40° C., HPLC; type: physicochemical; details: 4% DCOIT, […]% DBNPA
Description: […] […] Surfactants were TweenTM 20, TritonTM DF-12 or TritonTM CF-10. These compositions were stored at 40° C. for 6 weeks and the concentrations of active ingredients ([…]) in the compositions were determined by HPLC at the indicated time intervals.

[4] = Freeze/thaw stability of DCOIT/DBNPA/surfactant/GTA compositions, HPLC; type: physicochemical; details: for % DCOIT retained after Freezing and Thawing: thawed at 25° C. 5 hours, three times
Description: Samples were prepared to test the freeze/thaw stability of compositions of the present invention. The freeze/thaw test was conducted for compositions of […], surfactant and GTA prepared in Example 4. Samples (20 g each) were stored at -10° C. or -25° C. for 19 hours to be frozen; samples were then stored at 25° C. for 5 hours to be thawed. This sequence was repeated three times. Then the concentrations of active ingredients ([…]) in the compositions were determined by HPLC.

Compound: Cn1sc(Cl)cc1=O [CMIT, 5-chloro-2-methyl-3-isothiazolone]
% CMIT retained ([1]; 5% Triton CF-10, 45% GTA, 0 Time): 100%
% CMIT retained ([1]; 5% Triton CF-10, 45% GTA, 1 Week): 98%
% CMIT retained ([1]; 5% Triton CF-10, 45% GTA, 2 Weeks): 96%
% CMIT retained ([1]; 5% Triton CF-10, 45% GTA, 3 Weeks): 86%
% CMIT retained ([1]; 5% Triton CF-10, 45% GTA, 4 Weeks): 84%
% CMIT retained ([1]; 5% Triton DF-12, 45% GTA, 0 Time): 100%
% CMIT retained ([1]; 5% Triton DF-12, 45% GTA, 1 Week): 100%
% CMIT retained ([1]; 5% Triton DF-12, 45% GTA, 2 Weeks): 99%
% CMIT retained ([1]; 5% Triton DF-12, 45% GTA, 3 Weeks): 87%
% CMIT retained ([1]; 5% Triton DF-12, 45% GTA, 4 Weeks): 85%
% CMIT retained ([1]; 5% Tween 20, 45% GTA, 0 Time): 100%
% CMIT retained ([1]; 5% Tween 20, 45% GTA, 1 Week): 100%
% CMIT retained ([1]; 5% Tween 20, 45% GTA, 2 Weeks): 80%
% CMIT retained ([1]; 5% Tween 20, 45% GTA, 3 Weeks): 75%
% CMIT retained ([1]; 5% Tween 20, 45% GTA, 4 Weeks): 74%
% CMIT retained ([1]; no surfactant, 50% GTA, 0 Time): 100%
% CMIT retained ([1]; no surfactant, 50% GTA, 1 Week): 102%
% CMIT retained ([1]; no surfactant, 50% GTA, 2 Weeks): 97%
% CMIT retained ([1]; no surfactant, 50% GTA, 3 Weeks): 90%
% CMIT retained ([1]; no surfactant, 50% GTA, 4 Weeks): 88%

solubility in glyceryl triacetate ([2]; at 5° C.): 8 % by weight
solubility in glyceryl triacetate ([2]; at 25° C.): 8 % by weight
solubility in glyceryl triacetate ([2]; at 40° C.): 20 % by weight
% DCOIT retained ([3]; 5% Triton CF-10, 66% GTA, 4 Weeks): 96.0%
% DCOIT retained ([3]; 5% Triton CF-10, 66% GTA, 6 Weeks): 95.6%
% DCOIT retained ([3]; 5% Triton CF-10, 66% GTA, Time 0): 100.0%
% DCOIT retained ([3]; 5% Triton DF-12, 66% GTA, 4 Weeks): 100.0%
% DCOIT retained ([3]; 5% Triton DF-12, 66% GTA, 6 Weeks): 98.2%
% DCOIT retained ([3]; 5% Triton DF-12, 66% GTA, Time 0): 100.0%
% DCOIT retained ([3]; 5% Tween 20, 66% GTA, 4 Weeks): 94.3%
% DCOIT retained ([3]; 5% Tween 20, 66% GTA, 6 Weeks): 94.0%
% DCOIT retained ([3]; 5% Tween 20, 66% GTA, Time 0): 100.0%
% DCOIT retained after Freezing and Thawing ([4]; Example 4 composition with Triton CF-10, frozen at −10° C. 19 hours): 100.0%
% DCOIT retained after Freezing and Thawing ([4]; Example 4 composition with Triton CF-10, frozen at −25° C. 19 hours): 100.0%
% DCOIT retained after Freezing and Thawing ([4]; Example 4 composition with Triton DF-12, frozen at −10° C. 19 hours): 100.0%
% DCOIT retained after Freezing and Thawing ([4]; Example 4 composition with Triton DF-12, frozen at −25° C. 19 hours): 100.0%
% DCOIT retained after Freezing and Thawing ([4]; Example 4 composition with Tween 20, frozen at −10° C. 19 hours): 100.0%
% DCOIT retained after Freezing and Thawing ([4]; Example 4 composition with Tween 20, frozen at −25° C. 19 hours): 100.0%
Compound: CCCCCCCCn1sc(Cl)c(Cl)c1=O [DCOIT]
physical stability (appearance) during freeze/thaw cycling ([4]; in GTA solutions in the presence of surfactants): clear solution, no precipitation or phase separation observed
